Experiments:
[1] = target: T1, Growth factor receptor-bound protein 2 (Homo sapiens, UniProt P62993); assay: Inhibition of Growth factor receptor bound protein 2 SH2 domain binding to p185erbB-2 receptor
MDA-MB-453 = assay: Inhibition of MDA-MB-453 cell proliferation; assay type: functional, cell-based; details: Homo sapiens
[2] = target: T1, Growth factor receptor-bound protein 2; assay: Binding affinity for Growth factor receptor bound protein 2 SH2 domain

T1 sequence (P62993 whole entry, the tested form may be a part): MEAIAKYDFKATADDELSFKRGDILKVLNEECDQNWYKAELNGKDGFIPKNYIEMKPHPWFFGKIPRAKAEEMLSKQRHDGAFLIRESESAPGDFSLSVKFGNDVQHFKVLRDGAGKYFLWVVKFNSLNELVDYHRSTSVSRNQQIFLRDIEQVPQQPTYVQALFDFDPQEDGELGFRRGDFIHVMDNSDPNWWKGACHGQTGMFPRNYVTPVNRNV

`[N-]=[N+]=N[C@@H](Cc1ccc(CP(=O)(O)O)cc1)C(=O)NC1(C(=O)N[C@@H](CC(N)=O)C(=O)NCCCc2cccc3ccccc23)CCCCC1` showed an IC50 [1] of over 30 µM, an IC50 (MDA-MB-453) of over 50 µM and an IC50 [2] of 5 µM.

In the case of `NC(=O)C[C@H](NC(=O)C1(NC(=O)[C@H](Cc2ccc(CP(=O)(O)O)cc2)NC(=O)C(=O)O)CCCCC1)C(=O)NCCCc1cccc2ccccc12`, the IC50 [1] is reported as 3 µM, the IC50 (MDA-MB-453) is reported as 5 µM and the IC50 [2] is reported as 0.009 µM.

`NC(=O)C[C@H](NC(=O)C1(NC(=O)[C@@H](CC(=O)O)Cc2ccc(CP(=O)(O)O)cc2)CCCCC1)C(=O)NCCCc1cccc2ccccc12` was tested, and the IC50 [1] was 10 µM, the IC50 (MDA-MB-453) was 8 µM and the IC50 [2] was 0.008 µM.

Source: ChEMBL document CHEMBL1135561, “Development of a phosphatase-stable phosphotyrosyl mimetic suitably protected for the synthesis of high-affinity Grb2 SH2 domain-binding ligands” (Bioorg Med Chem Lett, 2002)
